Data from ChEMBL document CHEMBL1201862, “PubChem BioAssay data set” (2004).
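Compound exposure: 48 hours, 5 concentrations, 96-well plates. At the GI50, growth is halved.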 Activity calls are given as the source filed them. Cut-off read from the data, not from the text of the source: active = GI50 up to about 1.1 µM and inactive = higher.

Key:
Assay in all cases: DTP human tumour cell line panel, 48 h
786-0 = test system: 786-0
A498 = test system: A498
ACHN = test system: ACHN
COLO 205 = test system: COLO 205
EKVX = test system: EKVX
HOP-62 = test system: HOP-62
K562 = test system: K562
KM12 = test system: KM12
M14 = test system: M14
Malme-3M = test system: Malme-3M
NCI-H23 = test system: NCI-H23
RXF 393 = test system: RXF 393
SK-MEL-2 = test system: SK-MEL-2
UACC-257 = test system: UACC-257
UACC-62 = test system: UACC-62
HOP-92 = test system: HOP-92
OVCAR-4 = test system: OVCAR-4

Measured: GI50

O=C1C(c2ccc(Cl)cc2)=[N+]([O-])c2ccccc21
inactive: 786-0 16.9 µM | A498 24.7 µM | ACHN 15.2 µM | COLO 205 17.7 µM | EKVX 15.3 µM | HOP-62 29.4 µM | K562 13.4 µM | KM12 15.2 µM | M14 14.2 µM | Malme-3M 17.8 µM | NCI-H23 16.1 µM | RXF 393 11 µM | SK-MEL-2 23.1 µM | UACC-257 16 µM | UACC-62 18.3 µM

Cc1ccc(/C=C/C(=O)c2sc(-c3nc(C)c(C(=O)/C=C/c4ccc(C)cc4)s3)nc2C)cc1
inactive: 786-0 > 100 µM | A498 > 100 µM | ACHN > 100 µM | COLO 205 > 100 µM | EKVX > 100 µM | HOP-62 > 100 µM | HOP-92 > 100 µM | K562 > 100 µM | KM12 > 100 µM | Malme-3M > 100 µM | NCI-H23 > 100 µM | RXF 393 > 100 µM | SK-MEL-2 > 100 µM | UACC-257 > 100 µM | UACC-62 > 100 µM

C=C1CCC2(C(C)=O)COC1(C)O2 (centres undefined)
inactive: 786-0 > 100 µM | ACHN > 100 µM | COLO 205 > 100 µM | EKVX > 100 µM | HOP-62 > 100 µM | K562 > 100 µM | KM12 > 100 µM | M14 > 100 µM | Malme-3M > 100 µM | NCI-H23 > 10 µM | RXF 393 > 10 µM | UACC-257 > 100 µM | UACC-62 > 100 µM

CCOP12(OCC)NC(=O)OC1(C(F)(F)F)c1ccccc1O2 (centres undefined)
inactive: 786-0 > 100 µM | ACHN > 100 µM | K562 > 100 µM | KM12 > 100 µM | M14 > 100 µM | Malme-3M > 100 µM | NCI-H23 > 100 µM | OVCAR-4 > 100 µM | RXF 393 > 100 µM | SK-MEL-2 > 100 µM | UACC-257 > 100 µM | UACC-62 > 100 µM

CN(CCO)c1nc(N)cc(=O)[nH]1
inactive: 786-0 > 100 µM | ACHN > 100 µM | COLO 205 > 100 µM | EKVX > 100 µM | HOP-62 > 100 µM | HOP-92 > 100 µM | K562 > 100 µM | KM12 > 100 µM | M14 > 100 µM | Malme-3M > 100 µM | NCI-H23 > 100 µM | RXF 393 > 100 µM | SK-MEL-2 > 100 µM | UACC-257 > 100 µM | UACC-62 > 100 µM

CC1=C(NC(=O)/C(=N/NC(=S)NN)C2C(=O)CC(C)(C)CC2=O)C(=O)c2ccccc2C1=O
inactive: 786-0 10.9 µM | A498 20.9 µM | ACHN 13.3 µM | COLO 205 12.5 µM | EKVX 15.7 µM | HOP-62 16.1 µM | K562 10.6 µM | KM12 7.03 µM | M14 6.47 µM | Malme-3M 16 µM | NCI-H23 5.06 µM | OVCAR-4 13.7 µM | RXF 393 17.9 µM | SK-MEL-2 6.14 µM | UACC-257 3.43 µM | UACC-62 2.49 µM

C#CCSc1nc(N)c2ncn(C3OC(CO)C(O)C3O)c2n1 (centres undefined)
inactive: 786-0 > 100 µM | A498 > 100 µM | ACHN > 100 µM | COLO 205 > 100 µM | EKVX > 100 µM | HOP-62 > 100 µM | K562 > 100 µM | KM12 > 100 µM | Malme-3M > 100 µM | NCI-H23 > 100 µM | OVCAR-4 > 100 µM | RXF 393 > 100 µM | UACC-257 > 100 µM

O=C1c2ccccc2C(=O)C12CCc1ccccc12
inactive: 786-0 > 100 µM | ACHN > 100 µM | COLO 205 > 100 µM | EKVX > 100 µM | HOP-62 > 100 µM | HOP-92 > 100 µM | K562 83.4 µM | M14 > 100 µM | Malme-3M > 100 µM | NCI-H23 > 100 µM | OVCAR-4 > 100 µM | RXF 393 > 100 µM | UACC-62 > 100 µM

CC1=NN(c2ccccc2)C(=O)/C1=C\c1ccc([N+](=O)[O-])cc1
inactive: 786-0 29.1 µM | A498 11.4 µM | ACHN 31.5 µM | COLO 205 17.7 µM | EKVX 36.6 µM | K562 28.6 µM | KM12 26.4 µM | M14 30.8 µM | Malme-3M 23.9 µM | NCI-H23 27.9 µM | OVCAR-4 19.3 µM | RXF 393 19.5 µM | SK-MEL-2 21.9 µM | UACC-257 28.7 µM | UACC-62 21.7 µM

CCOC(=O)NC(=O)c1cn(-c2ccc(CCOC(=O)CCCCCCCCC(=O)OCCc3ccc(-n4cc(C(=O)NC(=O)OCC)c(=O)[nH]c4=O)cc3)cc2)c(=O)[nH]c1=O
inactive: 786-0 > 100 µM | ACHN > 100 µM | COLO 205 > 100 µM | EKVX > 100 µM | HOP-62 > 100 µM | HOP-92 26 µM | K562 > 100 µM | KM12 > 100 µM | M14 > 100 µM | Malme-3M > 100 µM | NCI-H23 > 100 µM | OVCAR-4 > 100 µM | RXF 393 > 100 µM | SK-MEL-2 > 100 µM | UACC-257 > 100 µM | UACC-62 > 100 µM

COc1c(CC(C)=O)c2ccccc2n1C(C)=O
inactive: 786-0 > 100 µM | A498 > 100 µM | ACHN > 100 µM | COLO 205 > 100 µM | EKVX > 100 µM | HOP-62 > 100 µM | HOP-92 > 100 µM | K562 > 100 µM | KM12 > 100 µM | M14 > 100 µM | NCI-H23 > 100 µM | OVCAR-4 > 100 µM | RXF 393 > 100 µM | SK-MEL-2 > 100 µM | UACC-257 > 100 µM | UACC-62 > 100 µM

COC1C2c3ccccc3C(C#N)(Cc3ccc4c(c32)OCO4)N1C(=O)c1ccccc1 (centres undefined)
inactive: 786-0 98.6 µM | ACHN 41.4 µM | COLO 205 16.7 µM | EKVX 45.8 µM | HOP-62 14.4 µM | HOP-92 > 100 µM | K562 5.11 µM | KM12 24.9 µM | M14 26.6 µM | Malme-3M 37.8 µM | NCI-H23 62.2 µM | RXF 393 16.3 µM | SK-MEL-2 46.8 µM | UACC-257 26.1 µM | UACC-62 3.37 µM

O=C(CSc1nnc(Cc2ccccc2)o1)Nc1ccccc1
inactive: 786-0 > 100 µM | A498 > 100 µM | ACHN > 100 µM | COLO 205 > 100 µM | HOP-62 > 100 µM | K562 > 100 µM | KM12 > 100 µM | M14 > 100 µM | Malme-3M > 100 µM | NCI-H23 > 100 µM | OVCAR-4 > 100 µM | RXF 393 > 100 µM | SK-MEL-2 > 100 µM | UACC-257 > 100 µM | UACC-62 > 100 µM
